SMILES strings stand for the structures. Active and inactive are the calls of the source. The calls are words filed in the database; no cut-off is given here. Bounds are passed on as bounds.

For one series, the target named is D(3) dopamine receptor (Rattus norvegicus, UniProt P19020). In words: Displacement of [3H]spiperone from rat dopamine D3 receptor expressed in Sf9 cells. Background: Displacement assays read how much labelled ligand stays bound in the presence of the test substance.
For another series, the target named is D(2) dopamine receptor (Rattus norvegicus, UniProt P61169). In words: Displacement of [3H]spiperone from dopamine D2 receptor in rat striatal membranes. The format is cell membranes, Membrane.
Chain of D(2) dopamine receptor (P61169 whole entry): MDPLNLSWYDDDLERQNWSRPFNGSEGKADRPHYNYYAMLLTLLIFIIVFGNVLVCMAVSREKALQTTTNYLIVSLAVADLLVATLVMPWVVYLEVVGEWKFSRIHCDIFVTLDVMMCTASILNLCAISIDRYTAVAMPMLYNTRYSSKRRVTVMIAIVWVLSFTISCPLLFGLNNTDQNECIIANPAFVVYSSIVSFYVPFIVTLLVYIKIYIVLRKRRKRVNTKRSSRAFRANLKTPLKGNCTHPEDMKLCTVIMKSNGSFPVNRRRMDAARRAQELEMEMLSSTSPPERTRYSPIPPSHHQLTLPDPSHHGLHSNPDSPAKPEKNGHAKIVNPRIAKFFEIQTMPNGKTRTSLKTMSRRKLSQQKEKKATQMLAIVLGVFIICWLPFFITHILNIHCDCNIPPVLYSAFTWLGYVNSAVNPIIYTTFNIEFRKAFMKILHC
Series [1] deals with Rattus norvegicus. In words: Antipsychotic activity in orally dosed Wistar rat assessed as inhibition of conditioned avoidance response after 1 hr. The class given is functional. The note with it: po.
The nature of series [2]: Bioavailability in rat at 10 mg/kg. The class given is ADME, organism-based. The following applies: in vivo.
The test system of series [3] is Rattus norvegicus. The series is described as follows: Catalepsy in orally dosed Wistar rat after 30 mins. The format is functional.
The target of series [4] is D(3) dopamine receptor (Homo sapiens) (UniProt P35462). The series is described as follows: Antagonistic activity at human D3 receptor expressed in CHO cells by [35S]GTP-gamma-S binding assay. The format is functional, cell-based. For orientation: GTPγS resists hydrolysis and so accumulates on activated G proteins.
Chain of D(3) dopamine receptor (Homo sapiens) (P35462 whole entry): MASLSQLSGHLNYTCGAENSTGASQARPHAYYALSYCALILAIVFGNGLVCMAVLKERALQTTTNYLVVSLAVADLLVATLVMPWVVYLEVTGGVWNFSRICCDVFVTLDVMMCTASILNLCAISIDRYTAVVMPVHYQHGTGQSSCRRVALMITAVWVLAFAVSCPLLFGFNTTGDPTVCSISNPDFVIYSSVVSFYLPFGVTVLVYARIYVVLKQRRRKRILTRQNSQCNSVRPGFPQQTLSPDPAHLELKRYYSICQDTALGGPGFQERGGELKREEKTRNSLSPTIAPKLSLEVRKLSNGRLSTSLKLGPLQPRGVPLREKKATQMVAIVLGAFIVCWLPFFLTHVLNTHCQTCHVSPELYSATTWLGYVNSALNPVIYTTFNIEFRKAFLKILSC
The target of series [5] is D(2) dopamine receptor (Homo sapiens) (UniProt P14416). In words: Antagonistic activity at human D2 expressed in CHO cells by [35S]GTP-gamma-S binding assay. The class given is functional, cell-based.
Chain of D(2) dopamine receptor (Homo sapiens) (P14416 whole entry): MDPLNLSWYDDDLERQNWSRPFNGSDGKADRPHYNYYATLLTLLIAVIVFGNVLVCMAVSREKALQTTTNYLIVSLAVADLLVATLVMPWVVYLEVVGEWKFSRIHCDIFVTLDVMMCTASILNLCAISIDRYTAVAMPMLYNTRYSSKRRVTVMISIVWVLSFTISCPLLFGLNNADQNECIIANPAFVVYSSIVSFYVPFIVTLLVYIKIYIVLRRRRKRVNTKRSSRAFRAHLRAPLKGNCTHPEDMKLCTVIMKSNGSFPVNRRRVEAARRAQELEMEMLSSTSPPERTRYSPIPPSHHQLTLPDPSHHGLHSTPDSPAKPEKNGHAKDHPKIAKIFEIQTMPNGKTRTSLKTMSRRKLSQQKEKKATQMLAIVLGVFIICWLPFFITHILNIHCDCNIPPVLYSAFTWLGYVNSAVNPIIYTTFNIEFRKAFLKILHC
A short description of series [6]: Tmax in orally dosed rat brain. The class given is ADME, organism-based. The note with it: po.
The nature of series [7]: Cmax in orally dosed rat brain. The format is ADME, organism-based. More on the design: route oral. The following applies: po.
Another series relates to Mus musculus. In words: Antipsychotic activity in orally dosed CD1 mice assessed as inhibition of […] induced climbing behavior. The following applies: CD1, po.

Chain of D(3) dopamine receptor (P19020 whole entry): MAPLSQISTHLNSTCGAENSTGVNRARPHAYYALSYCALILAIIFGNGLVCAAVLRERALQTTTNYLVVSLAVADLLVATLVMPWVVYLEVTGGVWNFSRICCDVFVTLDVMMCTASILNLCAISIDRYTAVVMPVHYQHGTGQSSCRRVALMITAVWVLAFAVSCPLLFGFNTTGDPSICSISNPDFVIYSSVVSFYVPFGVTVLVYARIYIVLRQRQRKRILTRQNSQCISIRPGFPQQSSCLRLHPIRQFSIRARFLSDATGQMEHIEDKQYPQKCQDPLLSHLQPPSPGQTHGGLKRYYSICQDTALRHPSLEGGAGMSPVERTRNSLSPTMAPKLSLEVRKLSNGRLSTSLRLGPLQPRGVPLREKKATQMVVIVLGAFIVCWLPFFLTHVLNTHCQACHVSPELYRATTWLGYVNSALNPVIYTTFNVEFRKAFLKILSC

What is called IC50 is the point on the concentration scale where inhibition reaches its midpoint. As to `N#Cc1cc(N2CCN(CC[C@H]3CC[C@H](NS(=O)(=O)c4ccc(Br)cc4)CC3)CC2)cc(C(F)(F)F)c1`, the IC50 worked out at 3.3 nM at D(3) dopamine receptor and 26 nM at D(2) dopamine receptor.
Turning to `O=S(=O)(N[C@H]1CC[C@H](CCN2CCC(Cc3cccc(C(F)(F)F)c3)CC2)CC1)c1ccc(Cl)cc1`, the results for the IC50 at D(3) dopamine receptor and at D(2) dopamine receptor were 3.8 nM and 41 nM, respectively.
Regarding `COc1ccc(S(=O)(=O)N[C@H]2CC[C@H](CCN3CCN(c4ccc(Br)cc4OC)CC3)CC2)cc1`, the results for the IC50 at D(3) dopamine receptor and at D(2) dopamine receptor were 0.5 nM and 28 nM, respectively.
The matching figures for `O=S(=O)(N[C@H]1CC[C@H](CCN2CCN(c3cccc(Cl)c3Cl)CC2)CC1)c1cccnc1`: 0.2 nM and 4 nM.
For orientation: ED50 means the dose at which the effect has come halfway, by size or by number of responders. With `O=C1CCc2ccc(OCCCCN3CCN(c4cccc(Cl)c4Cl)CC3)cc2N1` [ARIPIPRAZOLE], in the series with Rattus norvegicus [1], the median effective dose (ED50) turned out to be 17.9 mg/kg.
The term bioavailability denotes the share of a dose that reaches the circulation, judged against a reference dose that is usually intravenous. What is called Tmax is the time at which the peak concentration occurs. A word on the Cmax: it is the maximum level reached in the sampled fluid or tissue. For the compound `N#Cc1cc(N2CCN(CC[C@H]3CC[C@H](NS(=O)(=O)c4cccnc4)CC3)CC2)cc(C(F)(F)F)c1`, the figures for the IC50 on D(3) dopamine receptor and on D(2) dopamine receptor were 0.4 nM and 24 nM, respectively. In series [2], this compound showed a bioavailability of 55%. Also, the 50% effective dose (ED50) was found to be 11.6 mg/kg in the series on Rattus norvegicus [1] and 22 mg/kg with Mus musculus. The compound also had an MED with Rattus norvegicus [3] of more than 200 mg/kg. Moreover, the outcome in series [4] and in series [5] was Active. In addition, in series [6], the Tmax was 1 h. The compound further registered a Cmax in series [7] of 921 ng/mL.
Turning to `Cc1cc2c(s1)Nc1ccccc1N=C2N1CCN(C)CC1` [OLANZAPINE], in the series on Rattus norvegicus [1], the median effective dose (ED50) is 3.9 mg/kg.
`O=S(=O)(N[C@H]1CC[C@H](CCN2CCC(Cc3cccc(C(F)(F)F)c3)CC2)CC1)c1cc2ccccc2s1`: the values for the IC50 at D(3) dopamine receptor and at D(2) dopamine receptor were 2.6 nM and 91 nM, respectively.
Turning to `O=S(=O)(N[C@H]1CC[C@H](CCN2CCC(Nc3cc(Cl)ccc3Cl)CC2)CC1)c1ccc(F)cc1`, the half-maximal inhibitory concentration (IC50) came out at 2 nM at D(3) dopamine receptor and 9 nM on D(2) dopamine receptor.
For `N#Cc1cc(N2CCN(CC[C@H]3CC[C@H](NS(=O)(=O)c4ccc5c(c4)CCC(=O)N5)CC3)CC2)cc(C(F)(F)F)c1`, the IC50 came out at 0.7 nM at D(3) dopamine receptor and 30 nM at D(2) dopamine receptor.
Turning to `COc1ccc(S(=O)(=O)N[C@H]2CC[C@H](CCN3CCN(c4cccc(C#N)c4)CC3)CC2)cc1OC`, the IC50 on D(3) dopamine receptor amounted to 0.7 nM; at D(2) dopamine receptor it was 57 nM.
Regarding `O=S(=O)(N[C@H]1CC[C@H](CCN2CCC(Cc3cccc(C(F)(F)F)c3)CC2)CC1)c1ccc(-n2cccn2)cc1`, the concentration for half-maximal inhibition (IC50) is 0.5 nM at D(3) dopamine receptor and 4.3 nM on D(2) dopamine receptor.
In the same order, the values of `CC(=O)Nc1ccc(S(=O)(=O)N[C@H]2CC[C@H](CCN3CCN(c4cc(C#N)cc(C(F)(F)F)c4)CC3)CC2)cc1` are 0.9 nM and 39 nM.
For the compound `O=C1COc2ccc(S(=O)(=O)N[C@H]3CC[C@H](CCN4CCC(Oc5cccc(C(F)(F)F)c5)CC4)CC3)cc2N1`, the IC50 on D(3) dopamine receptor came out at 1 nM; on D(2) dopamine receptor, 5.3 nM.
The matching figures for `N#Cc1cc(N2CCN(CC[C@H]3CC[C@H](NS(=O)(=O)c4cccc(C#N)c4)CC3)CC2)cc(C(F)(F)F)c1`: 5.8 nM and 23 nM.
Take `Cc1ccc(S(=O)(=O)N[C@H]2CC[C@H](CCN3CCN(c4cc(C#N)cc(C(F)(F)F)c4)CC3)CC2)cn1`: the half-maximal inhibitory concentration (IC50) on D(3) dopamine receptor worked out at 4.2 nM; on D(2) dopamine receptor, 39 nM.

Values taken from ChEMBL document CHEMBL1149708, “Novel sulfonamides having dual dopamine D2 and D3 receptor affinity show in vivo antipsychotic efficacy with beneficial cognitive and EPS profile” (Bioorg Med Chem Lett, 2007).
